# Source: patent EP1428519A2, “5-Lipooxygenase inhibitors in deodorants and antiperspirants” (Henkel Kommanditgesellschaft auf Aktien, priority 2002, dated 2004)
# Counter-ions that a name gives are not always drawn.
# Molecular target: T1, 5-Lipoxigenase (Homo sapiens, UniProt P09917)
# T1 construct: durch Ultraschallbehandlung aufgeschlossen; Größere Zellbestandteile wurden bei 100 000 g abzentrifugiert, wobei 5-Lipoxigenase im Überstand verblieb; endogenous in cells; sonicated; 100 000 g supernatant
# T1 sequence (P09917 1-674): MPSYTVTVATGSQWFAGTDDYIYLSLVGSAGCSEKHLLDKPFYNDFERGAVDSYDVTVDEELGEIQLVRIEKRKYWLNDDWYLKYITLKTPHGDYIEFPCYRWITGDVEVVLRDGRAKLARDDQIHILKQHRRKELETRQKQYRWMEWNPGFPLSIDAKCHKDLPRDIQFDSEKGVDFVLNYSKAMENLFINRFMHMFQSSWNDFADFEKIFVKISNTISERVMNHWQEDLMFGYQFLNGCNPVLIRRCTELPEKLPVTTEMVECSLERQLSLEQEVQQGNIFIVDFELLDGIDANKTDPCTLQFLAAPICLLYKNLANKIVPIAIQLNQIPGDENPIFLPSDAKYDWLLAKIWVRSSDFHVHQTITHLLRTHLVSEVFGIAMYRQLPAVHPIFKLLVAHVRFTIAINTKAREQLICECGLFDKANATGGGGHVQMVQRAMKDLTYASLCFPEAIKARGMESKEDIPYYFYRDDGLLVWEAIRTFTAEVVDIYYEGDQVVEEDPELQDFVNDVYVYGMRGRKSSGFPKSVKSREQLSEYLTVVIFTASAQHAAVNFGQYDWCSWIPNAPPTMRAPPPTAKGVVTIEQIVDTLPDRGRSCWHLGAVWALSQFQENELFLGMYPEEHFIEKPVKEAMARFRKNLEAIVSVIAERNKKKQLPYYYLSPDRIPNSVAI
# Assay: 5-lipoxygenase inhibition in vitro (supernatant of differentiated leukaemia cells, leukotrienes quantified by HPLC)
# Format: biochemical, menschlichen
# Details: 100 µg raw material as is per ml supernatant; 30 s preincubation at 37° C, 10 min reaction with arachidonic acid; activity without test substance = 100 %; solvent per substance (Ethanol, Wasser or DMSO)
# Excerpt: Die 5-Lipoxigenase wurde aus menschlichen Leukämie-Zelllinien durch Zugabe von Dimethylsulfoxid (DMSO), TGF-β1 (transforming growth factor β1) und Dihydroxyvitamin D3 differenziert und dabei zugleich die 5-Lipoxigenase induziert. Nach 4 Tagen im Differenzierungsmedium wurden die Zellen geerntet, in einem Glucose-haltigen PBS-Puffer aufgenommen und durch Ultraschallbehandlung aufgeschlossen. Größere Zellbestandteile wurden bei 100 000 g abzentrifugiert, wobei 5-Lipoxigenase im Überstand verblieb.
# Die Bestimmung der 5-Lipoxigenase-Inhibitionswirkung erfolgte gemäß Werz et al., Naunyn-Schmiedeberg's Arch. Pharmacol., 1997, Vol. 456, 441 - 445.
# Dem Überstand aus der 5-Lipoxigenase-Herstellung wurden Adenosintriphosphat (ATP) und die zu testenden Rohstoffe zugesetzt. Im vorliegenden Falle wurden 100 µg Rohstoff, so wie er ist, pro Milliliter Überstand eingesetzt. Als Lösemittel wurden je nach Substanz Wasser, Ethanol, DMSO oder Chloroform verwendet.
# Die Ansätze wurden für 30 Sekunden bei 37° C vorinkubiert. Anschließend wurde die 5-Lipoxigenase-Reaktion durch Zusatz von Arachidonsäure gestartet. Nach 10 Minuten Reaktionszeit wurde die Reaktion durch Zugabe von Methanol gestoppt. Die durch die Einwirkung der 5-Lipoxigenase auf Arachidonsäure produzierten Leukotriene wurden mittels HPLC quantifiziert. Die Aktivität von 5-Lipoxigenase ohne Zugabe von Testsubstanz wurde zu 100 % gesetzt und die Aktivität der 5-Lipoxigenase mit Hemmstoff darauf bezogen. In Tabelle 1 ist die Hemmwirkung der einzelnen Testsubstanzen in % angegeben.
row,Hemmwirkung,SMILES
1,"90,3%",CC(C)=CCCC(C)(O)C1CC=C(C)CC1 (stereo not drawn) [α-Bisabolol]
2,"40,4%","O=C(O)CCCCC1CCSS1 (stereo not drawn) [α-Liponsäure, reference compound]"

row,SMILES,Hemmwirkung
1,"CC[C@H](CC[C@@H](C)[C@H]1CC[C@H]2[C@@H]3CC=C4C[C@@H](OS(=O)(=O)O)CC[C@]4(C)[C@H]3CC[C@]12C)C(C)C [Phytocohesine, Sodium Beta-Sitosteryl Sulfate]","62,8%"
